Tests used:
diabetic patients = settings: single dose, compared to placebo; cited from earlier work
diabetic patient = settings: single dose; cited from earlier work
[1] = after 12-week repeated administration compared to pretreatment; cited from earlier work
Type 2 diabetic patients = assay: Clinical efficacy on lipid metabolism disorders in diabetic patients (clinical study of mitiglinide calcium hydrate tablets); type: in vivo, human
Protocol: The following clinical study was conducted in Type 2 diabetic patients using tablets containing 5 mg of mitiglinide calcium hydrate and tablets containing 10 mg of mitiglinide calcium hydrate.
Patients included: Type 2 diabetic patients;
Mode of dosing: oral administration of 5 to 20 mg as a single dose three times per day just before (5 minutes before) each meal;
Dosing period: 28 weeks to 52 weeks;
Major items of observation: stabilized hemoglobin A1c (HbA1c), biochemical examination of blood (total cholesterol, triglyceride, LDL-cholesterol, HDL-cholesterol, free fatty acid);
Statistical Method: in all patients with an abnormal value of each lipid at pretreatment and without any hypolipidemic agent, significance test was conducted on the average of the final evaluation against the average of the pretreatment (*: P<0.05, **: P<0.01).
Patients with 150 mg/dL or more of serum TG at pretreatment were picked out as an abnormal group, the efficacy of mitiglinide calcium hydrate was evaluated on the group.
Patients with 200 mg/dL or more of serum TC at pretreatment were picked out as an abnormal group, the efficacy of mitiglinide calcium hydrate was evaluated.
Patients with 0.86 mEq/L or more of serum free fatty acid (FFA), 120 mg/dL or more of LDL-cholesterol (LDL-C) and less than 40 mg/dL of HDL-cholesterol at pretreatment, respectively, were picked out as abnormal groups, the efficacy of mitiglinide calcium hydrate was evaluated.

[2] = Example 2, person, 52 weeks vs pretreatment
[3] = Example 4, person, 40 weeks vs pretreatment
[4] = Example 5, person, 24 weeks vs pretreatment
[5] = Example 6, person, 52 weeks vs pretreatment
[6] = Example 7, person, 52 weeks vs pretreatment

CCOc1cc(CC(=O)N[C@@H](CC(C)C)c2ccccc2N2CCCCC2)ccc1C(=O)O [repaglinide]
effect on postprandial lipid variation (diabetic patients): did not show significant improving effect

CC(C)[C@H]1CC[C@H](C(=O)N[C@H](Cc2ccccc2)C(=O)O)CC1 [nateglinide]
effect on postprandial increase of triglyceride (diabetic patient): suppressed postprandial increase of triglyceride | effect on postprandial lipid variation [1]: did not show a significant improvement

O.O.O=C(O)[C@H](CC(=O)N1C[C@H]2CCCC[C@H]2C1)Cc1ccccc1.[Ca] [mitiglinide calcium hydrate, (2S)-2-benzyl-3-(cis-hexa hydro-2-isoindolinylcarbonyl)propionic acid calcium dihydrate]
FFA at the final evaluation (Type 2 diabetic patients; Example 2, person, 10 mg till 16th week then 20 mg, after 52-week administration, pretreatment 0.94): 0.26 mEq/L | LDL-C at the final evaluation (Type 2 diabetic patients; Example 2, person, 10 mg till 16th week then 20 mg, after 52-week administration, pretreatment 137): 108 mg/dL | TC at the final evaluation (Type 2 diabetic patients; Example 2, person, 10 mg till 16th week then 20 mg, after 52-week administration, pretreatment 240): 185 mg/dL | change of FFA (Type 2 diabetic patients; [2]): −0.68 mEq/L | change of LDL-C (Type 2 diabetic patients; [2]): -29 mg/dL | change of TC (Type 2 diabetic patients; [2]): -55 mg/dL | TG at the final evaluation (Type 2 diabetic patients; Example 3, person, 10 mg, after 52-week administration, pretreatment 171): 110 mg/dL | change of TG (Type 2 diabetic patients; Example 3, person, 52 weeks vs pretreatment): -61 mg/dL | TG at the final evaluation (Type 2 diabetic patients; Example 4, person, 10 mg till 16th week then 20 mg, after 40-week administration, pretreatment 163): 101 mg/dL | TC at the final evaluation (Type 2 diabetic patients; Example 4, person, 10 mg till 16th week then 20 mg, after 40-week administration, pretreatment 214): 162 mg/dL | change of TC (Type 2 diabetic patients; [3]): -52 mg/dL | change of TG (Type 2 diabetic patients; [3]): -62 mg/dL | FFA at the final evaluation (Type 2 diabetic patients; Example 5, person with concomitant hyperlipidemia, 10 mg till 16th week then 20 mg, after 24-week administration, pretreatment 0.53): 0.30 mEq/L | TG at the final evaluation (Type 2 diabetic patients; Example 5, person with concomitant hyperlipidemia, 10 mg till 16th week then 20 mg, after 24-week administration, pretreatment 213): 145 mg/dL | change of FFA (Type 2 diabetic patients; [4]): −0.23 mEq/L | change of TG (Type 2 diabetic patients; [4]): -68 mg/dL | LDL-C at the final evaluation (Type 2 diabetic patients; Example 6, person with concomitant hyperlipidemia, 10 mg, after 52-week administration, pretreatment 149): 134 mg/dL | TC at the final evaluation (Type 2 diabetic patients; Example 6, person with concomitant hyperlipidemia, 10 mg, after 52-week administration, pretreatment 260): 203 mg/dL | change of LDL-C (Type 2 diabetic patients; [5]): -15 mg/dL | change of TC (Type 2 diabetic patients; [5]): -57 mg/dL | HDL-C at the final evaluation (Type 2 diabetic patients; Example 7, person, 10 mg, after 52-week administration, pretreatment 57): 72 mg/dL | LDL-C at the final evaluation (Type 2 diabetic patients; Example 7, person, 10 mg, after 52-week administration, pretreatment 129): 116 mg/dL | TG at the final evaluation (Type 2 diabetic patients; Example 7, person, 10 mg, after 52-week administration, pretreatment 170): 100 mg/dL | TC at the final evaluation (Type 2 diabetic patients; Example 7, person, 10 mg, after 52-week administration, pretreatment 226): 206 mg/dL | change of HDL-C (Type 2 diabetic patients; [6]): +15 mg/dL | change of LDL-C (Type 2 diabetic patients; [6]): -13 mg/dL | change of TC (Type 2 diabetic patients; [6]): -20 mg/dL | change of TG (Type 2 diabetic patients; [6]): -70 mg/dL | Average of TG, Final evaluation (Type 2 diabetic patients; all patients with 150 mg/dL or more of pretreatment TG, oral 5 to 20 mg three times per day, 28 to 52 weeks, pretreatment average 262.6, ** P<0.01 vs pretreatment): 216.3** mg/dL | Average of TC, After the end of administration (Type 2 diabetic patients; all patients with 200 mg/dL or more of TC at pretreatment, oral 5 to 20 mg three times per day, 28 to 52 weeks, pretreatment average 231.8, * P<0.05 vs pretreatment): 226.4* mg/dL | Average LDL-C, After the end of administration (Type 2 diabetic patients; patients with 120 mg/dL or more of LDL-C at pretreatment, pretreatment average 144.9, ** P<0.01): 137.7** mg/dL | Average FFA, After the end of administration (Type 2 diabetic patients; patients with 0.86 mEq/L or more of FFA at pretreatment, pretreatment average 1.021, ** P<0.01): 0.745** mEq/L | overall effect on blood lipids (Type 2 diabetic patients; patients with high blood TG, blood TC, FFA or LDL-C, or low HDL-C): remarkable effects to lower TG, TC, LDL-C or FFA, or increase HDL-C | Average HDL-C, After the end of administration (Type 2 diabetic patients; patients with less than 40 mg/dL of HDL-C at pretreatment, pretreatment average 34.7, ** P<0.01): 40.3** mg/dL

Reference: US20080021086A1, “Pharmaceutical Composition for Prevention or Treatment of Lipid Metabolism Disorder” (KISSEI PHARMACEUTICAL CO., LTD., priority 2004, published 2008)
